Data set [1] has as its system CYP450s in human heart microsomes. Nature of the data set: Inhibition of verapamil metabolite formation in human heart microsomes by chemical inhibitors. Particulars: inhibitor 100 µM, verapamil 400 µM.
For another data set, the system named is human heart microsomes. Nature of the data set: Verapamil metabolism in human heart microsomes (formation of metabolites, HPLC). Type of data set: in vitro ADME. The method, then:
The HPLC system (Thermo Separation products, Fremont, CA) consisted of a SpectraSystem P4000 pump, a SpectraSystem AS3000 autosampler, a FL3000 fluorescence detector, a SpectraSystem UV3000 ultraviolet detector and PC1000 System Software.
Frozen samples of human heart ventricles (4–10 g) were immersed in cold phosphate buffer 100 mM (pH 7.4) containing potassium chloride 150 mM, EDTA 1 mM, dithiotreitol 0.5 mM and PMSF 0.01 mM (1∶3, w/v). Tissue was roughly sliced prior to homogenization using a Polytron. The resulting suspension was sonicated 3 times for 5–10 seconds. Homogenization and sonication were performed on ice. Microsomal fractions were isolated by centrifugation at 10,000 g for 20 minutes. The resulting supernatant was centrifuged twice at 100,000 g for 2 consecutive 90-minute periods. The final microsomal pellet was resuspended in a phosphate buffer 100 mM (pH 7.4), potassium chloride 150 mM and EDTA 1 mM. All procedures were performed at 4°C. […] The leftover heart microsomes were immediately shock frozen in liquid nitrogen for subsequent protein quantification. Microsomal heart proteins were quantified using a BCA Pierce kit.
All microsomal incubations were performed in duplicate.
Incubations containing microsomes, buffer and NADPH-regenerating system solution were pre-incubated at 37°C for 10 minutes. […] The enzymatic process was stopped by adding 500 µL of ice-cold acetonitrile. Different incubation times were assessed: 15 minutes to 4 hours. Incubation mixtures were centrifuged at 15,000 rpm for 10 minutes.
A series of incubations was also performed with previously inactivated human heart microsomes. The CYP450 proteins were inactivated by heating microsomes at 60°C for 10 minutes. Incubations were also conducted in the presence of nitrogen gas or carbon monoxide gas in replacement of ambient air to inactivate CYP450s.

[2] abbreviates: left ventricular microsomes, n = 20, substrate verapamil.
Where [3] appears, read: microsomes prepared from right ventricles, n = 8, substrate verapamil.

In the case of `CCCCCCCCN` [N-octylamine], in data set [1], the “decrease in formation of all major verapamil metabolites” value was “more than 80%”. As for `COc1cc(C(C#N)(CCCNCCc2ccc(OC)c(OC)c2)C(C)C)ccc1O` (stereo not drawn) [PR22], the “formation rate of verapamil metabolites, median (range; minimum-maximum values)” value in the data set with human heart microsomes (setting [2]) is 27 (2.1–76) pmol/min/mg of heart microsomal proteins; in the data set with human heart microsomes (setting [3]), 21 (3.7–64.4) pmol/min/mg of heart microsomal proteins. For `CCCC(C(=O)OCCN(CC)CC)(c1ccccc1)c1ccccc1` [SKF525], the “decrease in formation of all major verapamil metabolites” value in data set [1] was “more than 80%”. With `COc1ccc(CCNCCCC(C#N)(c2ccc(OC)c(OC)c2)C(C)C)cc1OC` (stereo not drawn) [norverapamil], the “formation rate of verapamil metabolites, median (range; minimum-maximum values)” value is 25 (5.8–214) pmol/min/mg of heart microsomal proteins in the data set on human heart microsomes (setting [2]) and 39 (5.8–145) pmol/min/mg of heart microsomal proteins in the data set with human heart microsomes (setting [3]).

Values taken from article PMC3001885, “Metabolic Activity and mRNA Levels of Human Cardiac CYP450s Involved in Drug Metabolism” (PLoS ONE, 2010).
